For one assay, the target named is T1, Aurora-A (Homo sapiens, UniProt O14965).
T1 sequence (O14965 1-403): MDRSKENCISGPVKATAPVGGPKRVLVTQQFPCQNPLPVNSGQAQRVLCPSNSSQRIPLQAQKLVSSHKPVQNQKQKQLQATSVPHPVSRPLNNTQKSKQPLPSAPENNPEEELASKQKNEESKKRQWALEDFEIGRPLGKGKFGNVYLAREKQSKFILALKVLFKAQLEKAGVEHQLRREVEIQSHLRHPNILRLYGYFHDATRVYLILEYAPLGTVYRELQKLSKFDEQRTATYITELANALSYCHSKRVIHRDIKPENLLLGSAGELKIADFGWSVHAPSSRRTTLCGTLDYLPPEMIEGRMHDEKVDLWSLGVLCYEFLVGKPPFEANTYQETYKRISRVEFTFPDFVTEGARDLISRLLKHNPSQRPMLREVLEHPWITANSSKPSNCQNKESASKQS
Nature of the assay: Flashplate Aurora A enzyme inhibition assay. It counts as biochemical. The settings on record: Flashplate assay; IC50 range; read-out: Aurora-A inhibition. The procedure, abridged: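 This is a radiometric Flashplate format: plates were precoated with DTT, and compound (in 2% DMSO) was mixed with kinase buffer (pH 7.5 Tris, MgCl2, NaCl) containing 1 mM MBP, 20 μM ATP and ^33P-ATP. The reaction was started with 250 ng Aurora-A per well and incubated 2 h at RT. It was then stopped by 10 mM sodium pyrophosphate washing, and plates were scintillation-counted.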

The test system of the next assay is HCT116 cells. Nature of the assay: Cell viability assay (MTT) in HCT116 cell line. It counts as cell-based. The settings on record: Homo sapiens, HCT-116, 72 hrs, IC50 range, read-out: HCT116 cell growth inhibition. Put shortly: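 MTT read-out (4 hrs, 37 °C, DMSO extraction) following 72 hrs of treatment with 0-50 μM Aurora inhibitor. HCT116 cells were plated a day earlier and tested in triplicate; IC50 derived from the curve.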

The text below walks through data of patent US8088761B2, “Enzyme inhibitors” (Cancer Research Technology Limited, priority 2005, dated 2012).

As for `CC(c1ccncc1)N1CCN(c2c(Br)cnc3[nH]c(-c4ccc(OCCN(C)C)cc4)nc23)CC1` (centres unmarked) [Example 131, 2-(4-(6-Bromo-7-(4-(1-(pyridin-4-yl)ethyl)piperazin-1-yl)-3H-imidazo[4,5-b]pyridin-2-yl)phenoxy)-N,N-dimethylethanamine], the IC50 on Aurora-A and in the assay on HCT116 cells was less than 500 nM throughout.

In the case of `CN(C)Cc1cccc(-c2nc3c(N4CCN(CC(=O)Nc5nccs5)CC4)c(Br)cnc3[nH]2)c1` [Example 13, 2-{4-[6-Bromo-2-(3-dimethylaminomethyl-phenyl)-3H-imidazo[4,5-b]pyridin-7-yl]-piperazin-1-yl}-N-thiazol-2-yl-acetamide], the IC50 at Aurora-A was less than 500 nM; in the assay with HCT116 cells, 500 to 2000 nM.

For `NCc1cccc(-c2nc3c(N4CCN(CC(=O)Nc5nccs5)CC4)c(Br)cnc3[nH]2)c1` [Example 12, 2-{4-[2-(3-Aminomethyl-phenyl)-6-bromo-3H-imidazo[4,5-b]pyridin-7-yl]-piperazin-1-yl}-N-thiazol-2-yl-acetamide], the results for the IC50 at Aurora-A and with HCT116 cells were less than 500 nM and 2000 to 50000 nM, respectively.

Take `CN(C)c1ccc(-c2nc3c(N4CCN(Cc5cccnc5)CC4)c(Br)cnc3[nH]2)cc1` [Example 27, 4-(6-Bromo-7-(4-(pyridin-3-ylmethyl)piperazin-1-yl)-3H-imidazo[4,5-b]pyridin-2-yl)-N,N-dimethylaniline]: the IC50 was less than 500 nM on Aurora-A and 500 to 2000 nM in the assay on HCT116 cells.

As to `CC(c1ccccc1)N1CCN(c2c(Cl)cnc3[nH]c(-c4ccc(N(C)C)cc4)nc23)CC1` (centres unmarked) [Example 17, 4-(6-chloro-7-(4-(1-phenylethyl)piperazin-1-yl)-3H-imidazo[4,5-b]pyridin-2-yl)-N,N-dimethylaniline], the IC50 at Aurora-A is less than 500 nM; in the assay with HCT116 cells, 500 to 2000 nM.

Consider `O=C(CN1CCN(c2c(Cl)cnc3[nH]c(-c4ccc(Cn5cccn5)cc4)nc23)CC1)Nc1nccs1` [Example 84, 2-(4-(2-(4-((1H-Pyrazol-1-yl)methyl)phenyl)-6-chloro-3H-imidazo[4,5-b]pyridin-7-yl)piperazin-1-yl)-N-(thiazol-2-yl)acetamide], for which the IC50 on Aurora-A and in the assay on HCT116 cells was less than 500 nM each time.

With `Clc1cnc2[nH]c(-c3ccc(N4CCNCC4)cc3)nc2c1N1CCN(Cc2cccnc2)CC1` [Example 137, 6-Chloro-2-(4-(piperazin-1-yl)phenyl)-7-(4-(pyridin-3-ylmethyl)piperazin-1-yl)-3H-imidazo[4,5-b]pyridine], the values for the IC50 at Aurora-A and in the assay with HCT116 cells were less than 500 nM and 500 to 2000 nM, respectively.

For `Fc1ccc(CN2CCN(c3c(Br)cnc4[nH]c(-c5ccc(CN6CCOCC6)cc5)nc34)CC2)cc1` [Example 148, 4-(4-(6-Bromo-7-(4-(4-fluorobenzyl)piperazin-1-yl)-3H-imidazo[4,5-b]pyridin-2-yl)benzyl)morpholine], the results for the IC50 on Aurora-A and with HCT116 cells were less than 500 nM and 500 to 2000 nM, respectively.

On to `O=C(CN1CCN(c2c(Cl)cnc3[nH]c(-c4ccc(CN5CCOCC5)cc4)nc23)CC1)Nc1nccs1` [Example 76, 2-{4-[6-Chloro-2-(4-morpholin-4-ylmethyl-phenyl)-3H-imidazo[4,5-b]pyridin-7-yl]-piperazin-1-yl}-N-thiazol-2-yl-acetamide], for which the IC50 on Aurora-A and in the assay with HCT116 cells was less than 500 nM throughout.

As to `COc1ccc(-c2nc3c(N4CCN(CC(=O)Nc5nccs5)CC4)c(Cl)cnc3[nH]2)cc1` [Example 19, 2-(4-(6-Chloro-2-(4-methoxyphenyl)-3H-imidazo[4,5-b]pyridin-7-yl)piperazin-1-yl)-N-(thiazol-2-yl)acetamide], the IC50 was less than 500 nM on Aurora-A and 500 to 2000 nM in the assay with HCT116 cells.

Regarding `COc1ccc(-c2nc3c(N4CCN(Cc5cccnc5)CC4)c(Br)cnc3[nH]2)cc1` [Example 28, 6-Bromo-2-(4-methoxyphenyl)-7-(4-(pyridin-3-ylmethyl)piperazin-1-yl)-3H-imidazo[4,5-b]pyridine], the IC50 at Aurora-A was less than 500 nM; in the assay on HCT116 cells it was 500 to 2000 nM.

On to `COc1ccc(-c2nc3c(N4CCN(Cc5csc(C)n5)CC4)c(Br)cnc3[nH]2)cc1` [Example 144, 4-((4-(6-Bromo-2-(4-methoxyphenyl)-3H-imidazo[4,5-b]pyridin-7-yl)piperazin-1-yl)methyl)-2-methylthiazole], for which the IC50 at Aurora-A and with HCT116 cells was less than 500 nM in each case.

Regarding `Brc1cnc2[nH]c(-c3ccc(N4CCOCC4)cc3)nc2c1N1CCN(Cc2cccnc2)CC1` [Example 102, 4-(4-(6-Bromo-7-(4-(pyridin-3-ylmethyl)piperazin-1-yl)-3H-imidazo[4,5-b]pyridin-2-yl)phenyl)morpholine], the IC50 at Aurora-A and in the assay with HCT116 cells was less than 500 nM each time.

On to `Cc1cc(NC(=O)CN2CCN(c3c(Cl)cnc4[nH]c(-c5ccc(N(C)C)cc5)nc34)CC2)on1` [Example 63, 2-(4-(6-Chloro-2-(4-(dimethylamino)phenyl)-3H-imidazo[4,5-b]pyridin-7-yl)piperazin-1-yl)-N-(3-methylisoxazol-5-yl)acetamide], for which the IC50 is less than 500 nM on Aurora-A and 500 to 2000 nM with HCT116 cells.

In the case of `CC(c1ccncc1)N1CCN(c2c(Br)cnc3[nH]c(-c4ccc(N5CCOCC5)cc4)nc23)CC1` (centres unmarked) [Example 130, 4-(4-(6-Bromo-7-(4-(1-(pyridin-4-yl)ethyl)piperazin-1-yl)-3H-imidazo[4,5-b]pyridin-2-yl)phenyl)morpholine], the results for the IC50 at Aurora-A and in the assay on HCT116 cells were less than 500 nM and 500 to 2000 nM, respectively.

`COc1ccc(-c2nc3c(N4CCN(Cc5cncn5C)CC4)c(Br)cnc3[nH]2)cc1` [Example 165, 6-Bromo-2-(4-methoxyphenyl)-7-(4-((1-methyl-1H-imidazol-5-yl)methyl)piperazin-1-yl)-3H-imidazo[4,5-b]pyridine]: the IC50 on Aurora-A was less than 500 nM; in the assay with HCT116 cells, 500 to 2000 nM.

Turning to `COc1ccc(-c2nc3c(N4CCN(Cc5cncs5)CC4)c(Br)cnc3[nH]2)cc1` [Example 170, 5-((4-(6-Bromo-2-(4-methoxyphenyl)-3H-imidazo[4,5-b]pyridin-7-yl)piperazin-1-yl)methyl)thiazole], the figures for the IC50 at Aurora-A and in the assay with HCT116 cells were less than 500 nM and 500 to 2000 nM, respectively.

With `CN(C)c1ccc(-c2nc3c(N4CCN(S(C)(=O)=O)CC4)c(Br)cnc3[nH]2)cc1` [Example 49, 4-(6-Bromo-7-(4-(methylsulfonyl)piperazin-1-yl)-3H-imidazo[4,5-b]pyridin-2-yl)-N,N-dimethylaniline], the IC50 on Aurora-A was less than 500 nM; with HCT116 cells it was 500 to 2000 nM.

`COc1ccc(-c2nc3c(N4CCN(Cc5ccc(Cl)cc5)CC4)c(Cl)cnc3[nH]2)cc1` [Example 37, 6-Chloro-7-(4-(4-chlorobenzyl)piperazin-1-yl)-2-(4-methoxyphenyl)-3H-imidazo[4,5-b]pyridine]: the values for the IC50 at Aurora-A and in the assay with HCT116 cells were less than 500 nM and 2000 to 50000 nM, respectively.

With `COc1ccc(-c2nc3c(N4CCN(Cc5cn(C)cn5)CC4)c(Br)cnc3[nH]2)cc1` [Example 168, 6-Bromo-2-(4-methoxyphenyl)-7-(4-((1-methyl-1H-imidazol-4-yl)methyl)piperazin-1-yl)-3H-imidazo[4,5-b]pyridine], the IC50 is less than 500 nM at Aurora-A and 2000 to 50000 nM with HCT116 cells.

Consider `Brc1cnc2[nH]c(-c3ccc(N4CCNCC4)cc3)nc2c1N1CCN(Cc2cccnc2)CC1` [Example 104, 6-Bromo-2-(4-(piperazin-1-yl)phenyl)-7-(4-(pyridin-3-ylmethyl)piperazin-1-yl)-3H-imidazo[4,5-b]pyridine], for which the IC50 on Aurora-A and with HCT116 cells was less than 500 nM each time.

Consider `COc1ccc(-c2nc3c(N4CCN(C(C)c5ccncc5)CC4)c(Cl)cnc3[nH]2)cc1` (centres unmarked) [Example 142, 6-Chloro-2-(4-methoxyphenyl)-7-(4-(1-(pyridin-4-yl)ethyl)piperazin-1-yl)-3H-imidazo[4,5-b]pyridine], for which the IC50 on Aurora-A and in the assay on HCT116 cells was less than 500 nM in each case.
